These results are taken from patent US20070027175A1, “Antineoplastic activities of ellipticine and its derivatives” (priority 2005, published 2007).

For assay [1], the system named is 8226/Dox1V cells. Description: Drug resistance and cytotoxicity MTT assay, 8226/Dox1V. The assay is classed as cell-based, human. As to the method: (§1) FIGS. 13A-13B show dose response of RPMI 8226 and 8226/Dox1V myeloma cells to EPED3 (FIG. 13A) or Dox (FIG. 13B). Cells were incubated for 96 hours with drug concentrations as indicated and analyzed by MTT assays; linear regression analysis was used to determine the IC50 for each drug (EPED3, FIG. 13A; Dox, FIG. 13B) and each cell line (RPMI8226, squares; 8226/Dox1V, circles). Data are presented as the mean of four independent experiments.
The 8226/Dox1V cell line was established by chronic exposure to Dox in presence of P-glycoprotein inhibitor, verapamil and was characterized by reduced expression and activity of topo II (Futscher et al., 1993).
(§2) The 8226/Dox1V and its parental line, RPMI 8226, cells were plated in 96-well plates at 10,000 cells/well and incubated with serial dilutions of EPED3 or Dox, as previously described (Landowski et al., 1999). After 96 hours incubation at 37° C., MTT was added to each well at a final concentration of 20 μg/ml and incubated an additional 4 hours. Plates were centrifuged and the media replaced with 0.1 ml DMSO to solublize the formazan complex. Optical density was measured at 540 nm using a Bio-Tek microplate spectrophotometer. IC50 values were calculated by linear regression analysis (Origins® Software Technologies, Inc.) of the log-linear plot for percent survival versus log drug concentration.
In drug resistance studies, the efficacy of EPED3 with 8226/Dox1V cells and the parental line, RPMI 8226 cells was investigated. Both cell lines were treated with either EPED3 or Dox, and the MTT assays were used to assess cell growth. Linear regression analysis of 96-hour dose-response curves was used to compare cytotoxicity of EPED3 in 8226/Dox1V and RPMI 8226 cell lines.
On the technique in general: Tetrazolium dyes change colour on reduction, which living cells bring about.

Assay [2] concerns 12 myeloma cell lines (Ark, BW288, CAG, Delta47, DF15, JJN3, kms11, L363, opm2, RPMI8226, U266 and XG1). Description: Comparative study with existing anti-myeloma drugs (CellTiter-Glo). The assay is classed as cell-based, human. Particulars: for response of 12 myeloma cell lines: 0.2 μM, in 5 days. An excerpt:
The results obtained from these controls are pooled together in the figure (●). The dose of each compound was set […].
Comparative study of NSC 338258 with existing anti-myeloma drugs Myeloma cell lines were exposed to NSC 338258 and existing anti myeloma drugs, Adriamycin® (Doxorubicin Hydrochloride) and Etoposide (VP-16-213) in ninety six well culture plates. The concentration of each compound was set […]. […] The cell growth was near zero in the following days (day 4 onwards; FIG. 6). It was also observed that 12 myeloma cell lines (Ark, BW288, CAG, Delta47, DF15, JJN3, kms11, L363, opm2, RPMI8226, U266 and XG1) responded to the same dosage (0.2 μM) of NSC 338258, VP-16-213 and Adriamycin in 5 days.

Assay [3] relates to RPMI 8226 cells. In words: Drug resistance and cytotoxicity MTT assay, RPMI 8226. The assay is classed as cell-based, human. Particulars: Homo sapiens, 96 hours. The procedure:
as §1, §2
In drug resistance studies, the efficacy of EPED3 with 8226/Dox1V cells and the parental line, RPMI 8226 cells was investigated. Both cell lines were treated with either EPED3 or Dox, and the MTT assays were used to assess cell growth. […]

The subject of assay [4] is DNA strand breakage. The conditions noted are these: Multon et al., 1989; cited from earlier work.

SMILES strings stand for the structures. pIC50: −log10 of the molar value.

One may read the pIC50 as the IC50 on a negative log10 scale, so that one unit is a factor of ten. Lower therefore signals a high IC50. In the case of `COc1cccc2c1C(=O)c1c(O)c3c(c(O)c1C2=O)C[C@@](O)(C(=O)CO)C[C@@H]3O[C@H]1C[C@H](N)[C@H](O)[C@H](C)O1` [Dox, Doxorubicin, reference compound], the pIC50 in assay [1] (Homo sapiens, 8226/Dox1V, 96 hours) was 6.53; in assay [3], 7.40. For the same molecule, the “resistance of 8226/Dox1V versus parental RPMI 8226” value in assay [1] (ratio of IC50, 96 hours) came out at 7.3 fold. In assay [2], the “response of 12 myeloma cell lines” value is “responded”.

For `Cc1c2cc[n+](C)cc2c(C)c2c1[nH]c1ccc(O)cc12` [Celiptium], the “potency in DNA strand breakage, times less than m-AMSA” value in assay [4] is on record as 50 times.

Take `COc1cc([C@@H]2c3cc4c(cc3[C@@H](O[C@@H]3O[C@@H]5CO[C@@H](C)O[C@H]5[C@H](O)[C@H]3O)[C@H]3COC(=O)[C@H]23)OCO4)cc(OC)c1O` [VP-16-213, Etoposide]: in assay [2], the “response of 12 myeloma cell lines” value is listed as “responded”. In addition, in assay [2] (myeloma cell lines (n=12), regardless of the concentration), the “speed of response compared with EPED3” value is “much more delayed response”.

Regarding `CCN(CC)CC[n+]1ccc2c(C)c3[nH]c4ccc(O)cc4c3c(C)c2c1` [Detalliptinium], the “potency in DNA strand breakage, times less than m-AMSA” value in assay [4] is 50 times.
